In paper PMC12322260, “Anticancer activity of triterpene glycosides from the sea star Solaster pacificus” (Scientific Reports, 2025):
Values joined by “and” are separate entries in the source; they are usually repeats but may differ in a detail not shown here. Equal values may be shown once.

Key:
PC3-DR cells [1] = details: TQD 50 nM
Protocol: Viability was evaluated using MTT assay, and IC50s were calculated using GraphPad Prism software. Number of biological replicates n = 3. […] Cells (6 × 10^3 cells/well in 100 μL/well of media) were plated in 96-well plates. The plates were incubated overnight, and the medium was replaced with fresh medium containing drugs at the indicated concentrations. The plates were further incubated for 48 h, unless otherwise stated, the solution of MTT reagent in PBS was added to each well, and cells were incubated for another 2–4 h to form formazan crystals. Then the media was removed and the plates were dried overnight. 50 μL of DMSO was added to each well to dissolve the formazan crystals. The absorbance of each well was measured using an Infinite F200PRO reader (TECAN, Männedorf, Switzerland). The cell viability was estimated as an inhibition concentration (IC50), which was calculated using GraphPad Prism software v.9.1.1 (GraphPad Software, San Diego, CA, USA). IC₅₀ values were determined by fitting the data to a nonlinear regression model (log[inhibitor] versus normalized response—variable slope).

phospho-p38 = assay: Western blot analysis of MAP kinases; format: cell-based, human; details: 22Rv1, 2 h
Protocol: (§1) Fig. 3 Functional kinome profiling of STKs (serine/threonine kinases) in 22Rv1 cells and validation of results. (a) Expression of apoptotic markers. The cells were treated with CuC1 for the indicated time, and the expression of proteins was analyzed by Western blotting. (b, c) Functional kinome profiling. A heatmap displaying log2-transformed phosphorylation levels of 99 analyzed STK substrate peptides (b) and upstream kinase analysis, which predicted kinases affected by CuC1 (c). Values of the normalized kinase statistics represented by bars, where log2 < 0 indicates decreased kinase activity and log2 > 0 denotes increased activity. Statistically significant changes having a specificity score log2 > 1.3 are highlighted by red bars. Number of biological replicates n = 3. (d), Western blot analysis of MAP kinases. 22Rv1 cells were treated with CuC1 for 2 h and the MAPK expression was analyzed by Western blotting. β-actin was used as a loading control. The band intensity of the protein of interest was quantified using Image Lab software and normalized to the band intensity β-actin (a), or to the band intensity of non-phospho MAPK (d), and is indicated by red numbers. Full-size blots are presented in Supplementary Fig. S2.
(§2) Western blotting was performed as previously described. In brief, 22Rv1 cells were seeded in Petri dishes (1 × 10^6 cells/dish in 10 mL/dish of media), incubated overnight, and treated with the drug for a specific time. Cells were harvested by scratching, washed with cold PBS, and lysed with RIPA buffer supplemented with protease and phosphatase inhibitor cocktails. Protein lysates were separated using precast Mini-PROTEAN® TGX Stain-FreeTM gels (Bio-Rad, Hercules, CA, USA) and SDS-PAGE. Proteins were transferred on a PVDF membrane and detected using specified primary and secondary antibodies. The protein signals were visualized and detected using the ECL chemiluminescence system (Thermo Scientific, Rockford, IL, USA). […] The signal (band) intensity was quantified using Image Lab v. […]

phospho-ERK1/2 = assay: Western blot analysis of MAP kinases; format: cell-based, human; details: 22Rv1, 2 h
Protocol: as §1, §2

phospho-JNK1/2 = assay: Western blot analysis of MAP kinases; format: cell-based, human; details: 22Rv1, 2 h
Protocol: as §1, §2

[2] = system: HT-29, RPMI-7951, and MDA-MB-231 cells; set-up: method as in PMID 33799442; details: nontoxic concentrations; cited from earlier work
22Rv1 cells [3] = assay: Western blotting of apoptotic markers; format: cell-based, human
Protocol: as §1, with “Statistically significant changes having a specificity score log2 > 1.3 are highlighted by red bars. Number of biological replicates n = 3. (d), Western blot analysis of MAP kinases.” left out, “Full-size blots are presented in Supplementary Fig. S2.” left out
Western blotting was performed as previously described. […] Proteins were transferred on a PVDF membrane and detected using specified primary and secondary antibodies. The protein signals were visualized and detected using the ECL chemiluminescence system (Thermo Scientific, Rockford, IL, USA). […] The signal (band) intensity was quantified using Image Lab v. […]

PC3-DR cells [4] = assay: Drug combination MTT assay, SynergyFinder ZIP analysis; format: cell-based, human; details: 48 h
Protocol: (§3) Fig. 5 Effects of CuC1 in combination with taxanes and platinum agents. PC3-DR and 22Rv1 cells were co-treated with cisplatin (Cis), carboplatin (Carbo), docetaxel (Doce), or cabazitaxel (Caba) in combination with CuC1 at the indicated concentrations for 48 h. Cellular viability was evaluated using the MTT assay (number of biological replicates n = 3.) and is represented in the Supplementary Table S2. The cytotoxic effects were further analyzed, and 3D heat maps were constructed using SynergyFinder 3.0 software. The drug effects in combination (synergistic, additive, or antagonistic) were analyzed and visualized using the ZIP algorithm and are indicated by δ-score. δ > 10: Synergistic interactions (dark red area); […]: additive effect; δ < − 10: Antagonistic interactions (dark green area). A ZIP synergy score represents a mean δ overall the concentration range used.
(§4) The effect of combinational treatment with established chemotherapies was evaluated as previously reported^54. In brief, cells were exposed to individual drugs of their combinations for 48 h, and the viability was measured by MTT assay and was then analyzed using SynergyFinder 3.0 software (https://synergyfinder.fimm.fi) and the ZIP score algorithm. Statistical analysis was conducted automatically by the software using its inbuilt algorythms based on the input data type and size.

22Rv1 cells [5] = assay: as above; format: cell-based, human; details: 22Rv1, 48 h
Protocol: as §3, §4

CO[C@@H]1[C@@H](O)[C@H](O[C@@H]2[C@@H](O)[C@H](O[C@H]3[C@H](O)[C@@H](O[C@@H]4OC[C@@H](O)[C@H](O)[C@H]4O)[C@H](O[C@H]4[C@H](O[C@H]5CC[C@]6(C)[C@@H]7CCC89C(=O)O[C@@](C)(/C=C\C=C(C)C)[C@H]8[C@@H](OC(C)=O)C[C@@]9(C)C7=CC[C@H]6C5(C)C)OC[C@@H](O)[C@@H]4O)O[C@@H]3C)O[C@H](CO)[C@H]2O)OC[C@H]1O (stereo partly shown) [CuC1, cucumarioside C1]
effect of co-treatment with tariquidar on cytotoxicity (PC3-DR cells [1]): did not alter cytotoxicity
active (phosphorylated) p38 (phospho-p38): inhibition of active (phosphorylated) forms
active (phosphorylated) ERK1/2 (phospho-ERK1/2): inhibition of active (phosphorylated) forms
active (phosphorylated) JNK1/2 (phospho-JNK1/2): but not JNK1/2
colony formation [2]: strongly suppressed the colony formation
signs of cell death (apoptotic markers) (22Rv1 cells [3]; 22Rv1, 0.5 μM, 2 h): did not induce any signs of cell death
apoptotic markers (22Rv1 cells [3]; 22Rv1, 24 h of treatment): apoptotic markers such as cleaved PARP and caspase-3 were detected
Response (% of effect) (PC3-DR cells [4]; CuC1 1 μM alone): 33.69% and 25.1% and 26.58% and 38.2% and 34.475% and 30.33% and 41.47% and 24.44%
Response (% of effect) (PC3-DR cells [4]; CuC1 2 μM alone): 61.45% and 55.31% and 54.31% and 72.9% and 63.58% and 68.91% and 61.135% and 65.14%
Response (% of effect) (PC3-DR cells [4]; CuC1 4 μM alone): 90.21% and 89.15% and 83.68% and 93.87% and 94.47% and 92.06% and 92.89% and 96.86%
Response (% of effect) (22Rv1 cells [5]; CuC1 0.25 μM alone): 31.1% and 43.16% and 29.95% and 34.58% and 29.34% and 26.82% and 33.12% and 30.57%
Response (% of effect) (22Rv1 cells [5]; CuC1 0.5 μM alone): 81.71% and 82.23% and 73.42% and 77.37% and 76.17% and 72.77% and 72.16% and 76.9194%
Response (% of effect) (22Rv1 cells [5]; CuC1 1 μM alone): 95.8597% and 95.08% and 89.09% and 94.3% and 94.37% and 95.8% and 97.07% and 93.71%
